# Source: patent publication US7122360B1, “Polypeptides, polynucleotides and uses thereof” (University of Dundee, priority 1998, dated 2006)
# Entries after “also recorded” stand apart in the source; their conditions may differ.
# Columns and labels:
# [1] = test system: MSK1; test: Activation of endogenous MSK1 in 293 cells (immunoprecipitation and Crosstide assay); format: cell-based, human; conditions: for activation of MSK1 by EGF and TPA: 50 μM PD 98059 or 10 μM SB 203580, 1 h
# [2] = test system: MSK1; test: Activation of MSK1 by TNF in HeLa cells; format: cell-based; conditions: 50 μM PD 98059, 10 μM SB 203580, TNF 10 ng/ml
# Excerpt: (§1) Cell Culture, stimulation and cell lysis.
# [3] = test system: CREB and ATF1; test: TNF induced CREB and ATF1 phosphorylation in HeLa cells; format: cell-based; conditions: for TNF-induced phosphorylation of CREB after 15 min / TNF-induced phosphorylation of CREB and ATF1 after 5 min: 50 μM PD 98059, 10 μM SB 203580
# Protocol: FIG. 12. […] The position of CREB and ATF1 on the blots is indicated. The time of exposure (exp) of the blots before development is indicated.
# Immunoblotting for phosphorylated CREB and ATF1. Cell extracts were prepared and immunoblotting of these carried out as described (Tan et al., 1996) using a phosphospecific antibody recognizing CREB phosphorylated on Ser 133 and ATF1 phosphorylated on Ser63 purchased from UBI (Lake Placid, USA). Detection of phosphorylated CREB and ATF1 proteins was performed using the enhanced chemiluminescence reagent (Amersham).
# [4] = test system: MSK1; test: Arsenite and FGF-induced activation of MSK1 in SK-N-MC cells; format: cell-based; conditions: for FGF-induced activation of MSK1: 50 μM PD 98059, 10 μM SB 203580, FGF 50 ng/ml 15 min
# Protocol: FIG. 14. […] After cell lysis aliquots were assayed for either MSK1 (A), MAPKAP-K1 (B), MAPKAP-K2 (C) after their immunoprecipitation from the lysates or immunoblotted for phosphorylation of CREB and ATF1 (D).
# as §1
# [5] = test system: CREB and ATF1; test: CREB and ATF1 phosphorylation in RAW 264 macrophages, immunoblot; format: cell-based, mouse; conditions: for LPS-induced phosphorylation of CREB and ATF1: LPS 100 ng/ml 1 h
# Protocol: FIG. 15. […] After cell lysis aliquots were assayed for either MSK1 (A), MAPKAP-K1 (B), MAPKAP-K2 (C) after their immunoprecipitation from the lysates or immunoblotted for phosphorylation of CREB and ATF1 (D).
# FIG. 19. […] (A) Macrophages were stimulated for the times indicated with LPS (100 ng/ml). After cell lysis, aliquots of the lysate (30 Tg protein) were denatured in SDS, electrophoresed on a 10% polyacrylamide gel, transferred to a nitrocellulose membrane, and immunoblotted with a phospho-CREB antibody. The positions of the molecular mass markers glycogen phosphorylase (97 kDa), bovine serum albumin (66 kDa), ovalbumin (43 kDa) and carbonic anhydrase (30 kDa) are indicated. […] (B) As in A, except that the macrophages were incubated for 1 h in the presence or absence of 50 TM PD 98059 and/or 10 TM SB 203580 (SB), or 5 TM Ro 318220 (Ro), then stimulated for 1 h in the absence or presence of 100 ng/ml LPS and in the continued presence or absence of the inhibitors.
# (§2) FIG. 22. […] (A) Macrophages were stimulated for 1 h with LPS (100 ng/ml) or for 15 min with forskolin (F) (20 TM) plus IBMX (10 TM). After cell lysis, aliquots of the lysate (30 Tg protein) were immunoblotted with a phospho-specific CREB antibody (see legend to FIG. 19 for details and molecular mass markers). (B) Macrophages were stimulated for 3 h with LPS (100 ng/ml), or forskolin (20 TM) plus IBMX (10 TM), and immunoblotting performed with a specific COX-2 antibody (materials & methods section). The marker proteins are as in FIG. 19.
# (§3) Cell culture and stimulation. RAW 264 macrophages were maintained in a 95% air/5% CO2 atmosphere in Dulbecco's modified Eagle's medium (DMEM) plus 10% (v/v) heat-inactivated foetal calf serum, 100 U/ml penicillin, […] streptomycin. The day before stimulation, the macrophages were plated at a density of 2×10^6 cells per 6 cm plate and 2 h before stimulation, the medium removed and replaced with 2 ml of DMEM. Where indicated, […] (10 TM) and/or PD 98059 (50 Tm), or U0126 (10 TM) or Ro 318220 (5 TM), were added 1 h before stimulation.
# (§4) Immunoblotting. For immunoblotting of CREB, nuclear cell extracts were prepared as described and immunoblotting performed using a phospho-specific antibody recognising CREB phosphorylated on Ser 133 and ATF1 phosphorylated on Ser 63. For immunoblotting of COX-2, cell lysate (30 Tg protein) was denatured in SDS, electrophoresed on 10% polyacrylamide gel, transferred to a nitrocellulose membrane, and immunoblotted with anti-COX-2 antibody (1.0 mg/ml). Detection of phosphorylated CREB and ATF1 and COX-2 was performed using the enhanced chemiluminescence reagent (ECL).
# [6] = test system: COX-2 protein; test: Induction of COX-2 protein in RAW 264 macrophages, immunoblot; format: cell-based, mouse; conditions: LPS 100 ng/ml 4 h, 50 TM PD 98059, 10 TM SB 203580, 5 TM Ro 318220
# Protocol: FIG. 20. […] (A) Macrophages were stimulated for the times indicated with LPS (100 ng/ml).
# as §2, §3, §4
# [7] = test system: MAPKAP-K1a/b; test: Activation of MAPKAP-K1a/b in 293 cells; conditions: 50 μM PD 98059 or 10 μM SB 203580
# [8] = test system: MAPKAP-K1; test: NGF-induced activation of MAPKAP-K1 in PC12 cells; conditions: 50 μM PD 98059, 10 μM SB 203580
# [9] = test system: HSP27; test: UV induced phosphorylation of HSP27 in 293 cells; format: cell-based, human; conditions: UV 200 J/m^2
# Protocol: FIG. 9. Effect of Ro 318220 on the activity of MSK1. (A) Effect of Ro 318220 on GST-MSK1 (closed circles), mixed PKC isoforms (open circles) GST-MAPKAP-K1b and MAPKAP-K2 (open triangles) in vitro. […] The error for each point is ±10%. […] The cells were lysed MAPKAP-K2 was immunoprecipitated and assayed. […] (C) as above except that 293 cells were incubated for 2 h in 32phosphate (0.1 mCi/ml) before treatment with inhibitors. Cells were then exposed to either UV radiation (200 J/m2) or left untreated (−), incubated for a further 20 min in the continued presence of inhibitors. Following cell lysis, HSP27 was immunoprecipitated from cell extracts (Cuenda et al., 1995) run on a 15% polyacrylamide gel and autoradiographed.
# [10] = test system: MAPKAP-K2; test: Activation of MAPKAP-K2 by TNF in HeLa cells; format: cell-based
# Excerpt: as §1
# [11] = test system: MAPKAP-K2; test: LPS-induced activation of MAPKAP-K2 in RAW 264 macrophages; format: cell-based, mouse; conditions: LPS 100 ng/ml 1 h, 10 μM SB 203580, 5 TM Ro 318220
# [12] = 50 TM PD 98059, 10 TM SB 203580, 5 TM Ro 318220
SMILES,activation of MSK1 by EGF and TPA [1],activation of MSK1 by TNF after 5 min [2],activation of MSK1 by TNF after 15 min [2],TNF-induced phosphorylation of CREB after 15 min [3],TNF-induced phosphorylation of CREB and ATF1 after 5 min [3],FGF-induced activation of MSK1 [4],"LPS-induced phosphorylation of CREB and ATF1 [5, 12]",LPS-stimulated induction of COX-2 protein [6],activation of MAPKAP-K1a/b by EGF and TPA [7],NGF-induced activation of MAPKAP-K1 [8],UV induced phosphorylation of HSP27 [9],"activation of MAPKAP-K2 by TNF ([10]; 5 μM Ro 318220, data not shown)",TNF-induced CREB phosphorylation ([3]; 5 μM Ro 318220),"MSK1 activation in cells ([4]; 5 μM Ro 318220, inhibitor removed on immunoprecipitation)",LPS-induced activation of MAPKAP-K2 [11],"forskolin-triggered phosphorylation of CREB and ATF-1, effect of inhibitors ([5]; data not shown)","activation of MSK1 by stressful stimuli ([1]; sodium arsenite, UV radiation or H2O2, 50 μM PD 98059 or 10 μM SB 203580)","activation of MAPKAP-K2 after 5 min of TNF stimulation ([10]; 50 μM PD 98059, 10 μM SB 203580)","sodium arsenite-induced activation of MSK1 ([4]; 50 μM PD 98059, 10 μM SB 203580, arsenite 0.5 mM 15 min)","LPS-induced phosphorylation of CREB and ATF1 ([5]; 50 TM PD 98059, 10 TM SB 203580, 5 TM Ro 318220, listed as SB203580)"
COc1cccc(-c2cc(=O)c3ccccc3o2)c1N [PD 98059],largely prevented,unaffected,partially blocked,slightly suppressed,unaffected,only partially suppressed,appear to inhibit; also recorded: partially inhibited,partially inhibited,largely suppressed,only partially inhibited,,,,,,,,,,
Cn1cc(C2=C(c3cn(CCCSC(=N)N)c4ccccc34)C(=O)NC2=O)c2ccccc21 [Ro 318220],,,,,,,completely prevents,suppresses,,,did not significantly affect,unaffected,completely blocked,does not affect MSK1 activation,does not affect,not suppressed,,,,
C[S+]([O-])c1ccc(-c2nc(-c3ccncc3)c(-c3ccc(F)cc3)[nH]2)cc1 (stereo not shown) [SB 203580],but not by SB 203580,completely inhibited,partially blocked,partially suppressed,prevented,only partially suppressed,partially inhibited,partially inhibited,but not by SB 203580,unaffected,blocked,,,,completely block,,largely inhibited,inhibited,prevented,appear to inhibit
